Results published in patent publication US20090202481A1, “Composition for Sustained Release Delivery of Proteins or Peptides” (priority 2008, published 2009).

Columns and labels:
Assay type in all cases: physicochemical
[1] = Physical stability (phase separation, top/bottom ratio) of SAIB/NMP formulations standing at room temperature
Procedure: (§1) Octreotide acetate (OCT-Ac) and octreotide conjugate (PAL-PEG-BA-OCT) powders were dissolved in NMP. Then the solutions containing various forms of octreotide were thoroughly mixed with SAIB solution in NMP (90% w/w).
(§2) The formulations as prepared above were allowed to stand at room temperature (˜22° C.). At predefined time points, the appearance of the formulations was recorded and an aliquot of each of both the supernatant and bottom composition was collected and analyzed by HPLC for octreotide content. The physical stability of the formulations was determined by direct observation or using the ratio of the content of the octreotide in the supernatant to that in the bottom composition. If the ratio equals to 1.0, the formulation is uniform and stable.

[2] = In vitro release of octreotide from SAIB/NMP formulations into PBS 7.4 at 37° C.; conditions: PBS 7.4, 37° C., SAIB/NMP formulation
Procedure: Formulations were prepared by mixing octreotide acetate (OCT-Ac) and octreotide conjugate (PAL-PEG-BA-OCT) powders with SAIB solution in NMP (90% w/w).
Due to the physical instability of the formulation containing OCT-Ac, the in vitro release was investigated immediately after the preparation of the formulations. An aliquot of the suspension was used for the in vitro release. About 0.1 mL of each formulation containing octreotide was injected into 3 mL of releasing buffer (PBS 7.4, containing 0.1% sodium azide) in a 4 mL glass vial. The vials were incubated at 37° C. and sampled at various time points. At each time point, 2 mL of release medium was removed and 2 mL of fresh release medium added. The collected samples were analyzed for peptide concentration and integrity by HPLC using an YMC-Pack ODS-120A column. Triplicate samples were used for each formulation.

[3] = Purity of the octreotide in formulations at room temperature over time (HPLC); conditions: SAIB/NMP formulation
Procedure: as §1, §2

SMILES: C[C@@H](O)[C@@H]1NC(=O)[C@H](CCCCN)NC(=O)[C@@H](Cc2c[nH]c3ccccc23)NC(=O)[C@H](Cc2ccccc2)NC(=O)[C@@H](NC(=O)[C@H](N)Cc2ccccc2)CSSC[C@@H](C(=O)N[C@H](CO)[C@@H](C)O)NC1=O [OCT-Ac, Octreotide acetate]
- Appearance when combined with SAIB/NMP solution ([1]; on mixing, about 6% octreotide content): phase separation occurred immediately
- NMP in the bottom phase ([1]; room temperature, SAIB/NMP formulation): slightly more NMP
- OCT ratio top/bottom ([1]; room temperature, after 5 days): less than 0.03
- Concentration of the octreotide in the bottom phase relative to the upper phase ([1]; room temperature, after two days): about 20 folds
- Phase separation of formulation (FIG. 1) ([1]; stood at room temperature for 24 h): apparent phase separation occurred
- Initial burst release (FIG. 2) [2]: very high initial burst release
- Octreotide released ([2]; after two weeks): more than 90%
- Octreotide released ([2]; within 24 hours): More than 60%
- Octreotide degraded in the bottom phase ([3]; after 7 days): more than 20%
- Octreotide degraded in the supernatant ([3]; after 7 days): More than half
- Octreotide degraded or reacted ([3]; after two hours): about 4%
